Experimental data published in publication PMC9089912, “Imaging articular cartilage in osteoarthritis using targeted peptide radiocontrast agents” (PLoS ONE, 2022).
Entries after “also recorded” stand apart in the source; their conditions may differ. Non-standard residues stand in square brackets, D forms with d. Residues, ends and D or L forms follow the SMILES beside them. Tyr(3,5-I2) = N[C@@H](Cc1cc(I)c(O)c(I)c1)C(=O)O; AEEA = NCCOCCOCC(=O)O

Legend:
[1] = Solubility of purified DIT peptides at concentrations needed for radiocontrast; conditions: purified peptide (≥ 95% by HPLC), 10% DMSO/water, at 20 mg iodine/ml as well as 2 mg iodine/ml (lowest concentration for contrast)
From the text: An integrated design, placing DIT into the core of WYRGRL (3) was followed by the addition of a further DIT at the N-terminus (4). […] To improve solubility, both arginine residues in 3 and 4 were replaced with lysine to give 5 and 6, respectively.

[2] = molecular target: T1, murine articular cartilage (type II collagen) (Mus musculus, UniProt P28481); assay: Fluorescence histology of murine cartilage after intra-articular injection of DOTAM-Cy5.5 probes; type: in vivo; conditions: 24 h after intra-articular injection into mouse knee joints; probes of ref 20
T1 construct: Fixed cryosections of murine tibiae (10 µm) 24 h after intra-articular injection of Ac-WYRGRL-DOTAM-Cy5.5 or Ac-YRLGRW-DOTAM-Cy5.5; from tissue; host or cells: articular cartilage of the mouse knee joint (in vivo injection, histology of tibial cryosections)
T1 sequence (P28481 182-1241 limits assumed): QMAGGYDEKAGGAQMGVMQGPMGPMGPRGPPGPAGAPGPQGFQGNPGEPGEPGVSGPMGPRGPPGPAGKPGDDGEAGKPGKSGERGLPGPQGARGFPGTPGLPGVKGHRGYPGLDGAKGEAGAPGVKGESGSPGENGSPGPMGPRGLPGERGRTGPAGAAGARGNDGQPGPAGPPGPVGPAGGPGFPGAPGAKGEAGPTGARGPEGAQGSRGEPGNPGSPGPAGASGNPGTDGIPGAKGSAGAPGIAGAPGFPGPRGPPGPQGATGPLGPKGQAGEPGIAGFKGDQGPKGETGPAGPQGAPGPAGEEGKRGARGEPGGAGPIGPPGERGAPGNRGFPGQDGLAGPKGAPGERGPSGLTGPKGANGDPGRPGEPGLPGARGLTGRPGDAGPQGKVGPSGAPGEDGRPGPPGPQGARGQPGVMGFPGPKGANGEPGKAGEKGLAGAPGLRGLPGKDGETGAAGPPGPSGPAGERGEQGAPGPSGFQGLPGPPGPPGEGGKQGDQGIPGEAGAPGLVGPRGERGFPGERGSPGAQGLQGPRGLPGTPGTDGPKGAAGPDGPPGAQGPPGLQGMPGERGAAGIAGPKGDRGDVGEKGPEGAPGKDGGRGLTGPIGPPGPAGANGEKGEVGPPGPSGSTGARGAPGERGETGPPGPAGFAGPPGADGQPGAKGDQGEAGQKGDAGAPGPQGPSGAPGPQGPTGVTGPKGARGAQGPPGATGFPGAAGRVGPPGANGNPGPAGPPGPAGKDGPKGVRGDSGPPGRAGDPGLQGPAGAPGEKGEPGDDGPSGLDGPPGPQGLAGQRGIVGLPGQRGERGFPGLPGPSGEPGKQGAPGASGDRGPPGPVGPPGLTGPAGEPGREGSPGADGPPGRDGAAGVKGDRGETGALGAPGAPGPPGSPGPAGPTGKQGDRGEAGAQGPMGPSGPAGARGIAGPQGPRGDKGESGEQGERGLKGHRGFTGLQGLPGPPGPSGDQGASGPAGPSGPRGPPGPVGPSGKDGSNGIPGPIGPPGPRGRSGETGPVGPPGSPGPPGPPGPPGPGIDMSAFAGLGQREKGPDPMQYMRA
Description: Fluorescence immunohistochemistry for localisation of Ac-WYRGRL-DOTAM-Cy5.5. Fixed cryosections of murine tibiae (10 µm) 24 h after intra-articular injection of Ac-WYRGRL-DOTAM-Cy5.5 or Ac-YRLGRW-DOTAM-Cy5.5 [1] were blocked with 10% goat serum, stained with rat anti-heparan sulfate proteoglycan antibody (A7L6, Abcam), washed three times with PBS-Tween 0.05% (v/v), labelled with Alexa Fluor 488 goat anti-rat IgG (H+L, Abcam) and washed three times with PBS-Tween 0.05% (v/v) before imaging. Cryosections were viewed under a Nikon TE2000-U Ultraview confocal microscope (PerkinElmer, Seer Green, UK) using a 488 nm excitation laser with 525 nm emission filter to visualise the Alexa Fluor 488 label (green false colour), and a 640 nm excitation laser with 700 nm emission filter to visualise the Cy5.5 label (red false colour).

[3] = Ex vivo micro-CT contrast enhancement of murine articular cartilage: DIPIC vs PTA vs iopamidol; parameters: species or system mouse; conditions: 20 mg iodine/ml (PTA: 1% in 70% ethanol); for Thickness of cartilage assessed with the contrast agent: ex vivo mouse tibiae; for Thickness of cartilage assessed with the contrast agent / Difference in X-ray absorption between cartilage and background: micro-CT absorption profile; for X-ray absorption of background / X-ray absorption of cartilage / Difference in X-ray absorption between cartilage and background: overnight incubation of mouse tibiae (n = 3); for X-ray absorption of background / X-ray absorption of cartilage: mean ± SEM
Description: Ex vivo imaging with DIPIC, PTA or iopamidol. Mice were culled through inhalation of CO2 and their knee joints harvested and split under a dissection microscope. Tibiae (n = 3) were finely dissected to remove soft tissue and incubated overnight either in DIT peptide or iopamidol (Santa Cruz Biotechnology, Dallas, Texas, USA) at 20 mg iodine/ml (20 μl) or 1% PTA (Sigma) in 70% ethanol. To determine the contrast achieved in the articular cartilage at equilibrium, proximal tibiae were imaged by micro-CT while incubated in each contrast agent. […] Following imaging, tibiae were washed in saline and imaged in fresh saline until the articular cartilage could no longer be detected.
Generation of colour-coded absorption maps. To calibrate micro-CT scans in Hounsfield units (HU), air and water were scanned and reconstructed. The average grey level intensity within a cylindrical VOI was obtained from image histograms in ImageJ (air = -832.85, water = 152.54). Based on knowledge of the average grey level intensity and the corresponding HU (air = -1000, water = 0), the following linear transformation was derived (equation 2): […]
Using this calibration, the grey level intensity of each pixel was linearly transformed into X-ray absorption (HU) for each micro-CT image dataset using Matlab (R2014b, MathWorks, Natick, Massachusetts, USA). To enhance the difference between X-ray absorption of each tissue, colour-coded maps, also expressed in HU, were generated in Matlab by assigning a look up table (LUT) of 256 colours to each image dataset.

## CC(C)C[C@H](NC(=O)[C@H](CCCCN)NC(=O)CNC(=O)[C@H](CCCCN)NC(=O)[C@H](Cc1ccc(O)cc1)NC(=O)[C@H](Cc1c[nH]c2ccccc12)NC(=O)COCCOCCNC(=O)[C@H](Cc1cc(I)c(O)c(I)c1)NC(=O)[C@@H](N)Cc1cc(I)c(O)c(I)c1)C(=O)O [compound 12] (H-[Tyr(3,5-I2)][Tyr(3,5-I2)][AEEA]WYKGKL-OH)
[1]
  Solubility of pure peptide: insoluble

## CC(C)C[C@H](NC(=O)[C@H](CCCNC(=N)N)NC(=O)CNC(=O)[C@H](CCCNC(=N)N)NC(=O)[C@H](Cc1cc(I)c(O)c(I)c1)NC(=O)[C@@H](N)Cc1c[nH]c2ccccc12)C(=O)O [compound 3] (H-W[Tyr(3,5-I2)]RGRL-OH)
[1]
  Solubility of pure peptide: poor solubility

## Ac-YRLGRW-DOTAM-Cy5.5 [scrambled control peptide-DOTAM-Cy5.5 probe]
[2]
  Binding of probe to cartilage (Cy5.5 fluorescence histology): Only targeted probe (F) showed binding to cartilage

## C[C@H](O)C(=O)Nc1c(I)c(C(=O)NC(CO)CO)c(I)c(C(=O)NC(CO)CO)c1I [iopamidol]
[3]
  Thickness of cartilage assessed with the contrast agent: 70 μm
  X-ray absorption of background: 875 ± 12 HU
  X-ray absorption of cartilage: 678 ± 29 HU
  Difference in X-ray absorption between cartilage and background: 0.8 fold

## CC(C)C[C@H](NC(=O)[C@H](CCCNC(=N)N)NC(=O)CNC(=O)[C@H](CCCNC(=N)N)NC(=O)[C@H](Cc1cc(I)c(O)c(I)c1)NC(=O)[C@H](Cc1c[nH]c2ccccc12)NC(=O)[C@@H](N)Cc1cc(I)c(O)c(I)c1)C(=O)O [compound 4] (H-[Tyr(3,5-I2)]W[Tyr(3,5-I2)]RGRL-OH)
[1]
  Solubility of pure peptide: poor solubility

## CC(C)C[C@H](NC(=O)[C@H](CCCCN)NC(=O)CNC(=O)[C@H](CCCCN)NC(=O)[C@H](Cc1cc(I)c(O)c(I)c1)NC(=O)[C@@H](N)Cc1c[nH]c2ccccc12)C(=O)NCCOCCOCC(=O)N[C@@H](Cc1cc(I)c(O)c(I)c1)C(=O)NCC(=O)O [compound 14] (H-W[Tyr(3,5-I2)]KGKL[AEEA][Tyr(3,5-I2)]G-OH)
[1]
  Solubility of pure peptide: insoluble

## CC(C)C[C@H](NC(=O)[C@H](CCCCN)NC(=O)CNC(=O)[C@H](CCCCN)NC(=O)[C@H](Cc1cc(I)c(O)c(I)c1)NC(=O)[C@H](Cc1c[nH]c2ccccc12)NC(=O)[C@@H](N)Cc1cc(I)c(O)c(I)c1)C(=O)O [peptide 6] (H-[Tyr(3,5-I2)]W[Tyr(3,5-I2)]KGKL-OH)
[1]
  Solubility of pure peptide: insoluble in solution

## O=P(O)(O)O.[O]=[W](=[O])=[O].[O]=[W](=[O])=[O].[O]=[W](=[O])=[O].[O]=[W](=[O])=[O].[O]=[W](=[O])=[O].[O]=[W](=[O])=[O].[O]=[W](=[O])=[O].[O]=[W](=[O])=[O].[O]=[W](=[O])=[O].[O]=[W](=[O])=[O].[O]=[W](=[O])=[O].[O]=[W](=[O])=[O] [PTA, phosphotungstic acid]
[3]
  Thickness of cartilage assessed with the contrast agent: 110 μm
  X-ray absorption of background: 342 ± 64 HU
  X-ray absorption of cartilage: 3657 ± 253 HU
  Difference in X-ray absorption between cartilage and background: 10.7 fold

## Ac-WYRGRL-DOTAM-Cy5.5 [targeting peptide conjugated to a macrocyclic DOTAM scaffold with a Cy5.5 fluorophore]
[2]
  Binding of probe to cartilage (Cy5.5 fluorescence histology): strong binding of the targeted probe to cartilage; also recorded: showed binding to cartilage
